The values that follow come from patent US20240150389A1, “MODIFIED GUANINES” (NUCLERA NUCLEICS LTD, priority 2021, published 2024).

One data set has as its system TdT. The data set is described as follows: Enzymatic DNA synthesis reactions (N+20 nucleotide additions with TdT, analysed by next-generation sequencing). Format: biochemical. The method, then: Enzymatic N+20 nucleotide addition reactions were conducted on polymer-coated silica paramagnetic particles. Enzymatic DNA synthesis was performed on a ThermoFisher KingFisher sample purification system. Enzymatic DNA synthesis consists of cycles of addition solution (containing TdT, reversibly terminated nucleotide and a near-neutral extension solution comprising one or more buffers (e.g., Tris or cacodylate), one or more salts (e.g., Na^+, K^+, Mg^2+, Mn^2+, Cu^2+, Zn^2+, Co^2+, etc. all with appropriate counterions, such as Cl^−) and inorganic pyrophosphatase (e.g., the Saccharomyces cerevisiae homolog)), wash 1 solution (HEPES+5 mM EDTA at pH 8.00), deblock solution (sodium nitrite at pH 5.5), and wash 2 solution (HEPES at pH 7.20). The following sequences […] (Oligo A) and […] (Oligo B) were synthesized in triplicate. DNA products were analysed by next-generation sequencing on an Illumina MiniSeq. Data showing the percent perfect sequences are shown in the following plots for synthesis of these sequences with reversibly terminated dG and reversibly terminated 8-aza-dG; other nucleotides are reversibly terminated dA, dC or dT.

A short description of data set [1]: Stability tests of modified 2′-deoxyguanosines in NDS buffer vs. 2′-deoxyguanosine (nitrite-mediated deamination). Format: physicochemical. The following applies: for stability in NDS compared with 2′-deoxyguanosine: nitrite deprotection solution (sodium nitrite in 1M sodium acetate, pH 5.5), room temperature, over 4 days, HPLC or LC/MS. The method, then:
Stability Tests of Modified 2′-Deoxyguanosines in NDS Buffer vs. 2′-Deoxyguanosine
Nitrite deprotection solution (NDS) was prepared from sodium nitrite (380 mg, 5.5 mmol) and 1M pH 5.5 sodium acetate (7.868 mL) and adjusted to pH 5.5 with 10M sodium hydroxide. Samples of nucleoside (˜0.5 mg) were dissolved in 1 mL aliquots of this buffer. The samples were analysed by HPLC or LC/MS using Method 1 or Method 2 immediately after making up the samples and at intervals over 4 days while stored at room temperature alongside reference samples of 2′-deoxyguanosine. 2′-Deoxyguanosine gave an approximately 8:1 mixture of 2′-deoxyxanthosine and Peak (3) with the same mass as 2′-deoxyxanthosine. 7-Deaza-2′-deoxyguanosine gave 7-deaza-2′-deoxyxanthosine as one component of a complex mixture of products. Other nucleosides gave products with masses corresponding to the products of substitution of NH2 with OH (increase of 1 Da) assigned to the 2′-deoxyxanthosine analogues. Data for 7-deaza-2′-deoxyguanosine (X=CH, Y=CH), 7-deaza-7-trifluoromethyl-2′-deoxyguanosine (X=CCF3, Y=CH), 7-deaza-7-cyano-2′-deoxyguanosine, 7-deaza-7-methanesulfonyl-2′-deoxyguanosine (X=CSO2Me, Y=CH) and 8-aza-2′-deoxyguanosine (X=N, Y=N) for experiments run in parallel with 2′-deoxyguanosine (X=CH, Y=N) are shown in the plots below.

For the compound “3′-(O)-Acetoxime-8-Aza-2′-Deoxyguanosine 5′-Triphosphate [reversibly terminated 8-aza-dG]”, the “efficiency of additions of any nucleotide to 8-aza-dG terminated sequences compared with dG terminated sequences” value in the data set with TdT (TdT addition, Oligo A and Oligo B) is given as “less efficient”. Further, the “percent perfect sequences compared with products made with dG” value in the data set on TdT (synthesis of Oligo A and Oligo B in triplicate, Illumina MiniSeq) is “lower level of percent perfect sequences”. For the compound `CS(=O)(=O)c1cn(C2CC(O)C(CO)O2)c2nc(N)[nH]c(=O)c12` (stereo not shown) [7-(MethanesulfonyI)-7-Deaza-2′-Deoxyguanosine], the “stability in NDS compared with 2′-deoxyguanosine” value in data set [1] is reported as “slightly more stable”. Still for that read-out and setting: under `Nc1nc2c(ccn2[C@H]2C[C@H](O)[C@@H](CO)O2)c(=O)[nH]1` [7-Deaza-2′-deoxyguanosine, reference compound] stands “much less stable”; under `Nc1nc2c(c(C(F)(F)F)cn2[C@H]2C[C@H](O)[C@@H](CO)O2)c(=O)[nH]1` [7-Deaza-7-Trifluoromethyl-2′-Deoxyguanosine], “slightly more stable”. The same measure, in the same setting: under `N#Cc1cn([C@H]2C[C@H](O)[C@@H](CO)O2)c2nc(N)[nH]c(=O)c12` [7-deaza-7-cyano-2′-deoxyguanosine, 7-Deaza-7-Cyano-2′-Deoxyguanosine] stands “slightly more stable”. For `Nc1nc2c(nnn2[C@H]2C[C@H](O)[C@@H](CO)O2)c(=O)[nH]1` [8-Aza-2′-deoxyguanosine], the “factor by which more stable in NDS than 2′-deoxyguanosine” value in data set [1] (nitrite deprotection solution pH 5.5, room temperature, run in parallel with 2′-deoxyguanosine) was 4.2.
